Laboratory results from ChEMBL document CHEMBL1142803, “Synthesis and in vitro study of novel 7-O-acyl derivatives of Oroxylin A as antibacterial agents” (2005).
In brackets after ≈: the same amount, converted by molar mass.

What was measured:
Klebsiella aerogenes = test: Minimum inhibitory concentration against gram negative Klebsiella aerogenes (MTCC 39) using broth dilution method; format: functional
[1] = Minimum inhibitory concentration against gram negative Chromobacterium violaceum (MTCC 2656) using broth dilution method; format: functional
Staphylococcus aureus = test: Minimum inhibitory concentration against gram positive Staphylococcus aureus (MTCC 96) using broth dilution method; format: functional
Bacillus sp. = test: Minimum inhibitory concentration against gram positive Bacillus sphaericus (MTCC 11) using broth dilution method; format: functional, Lysinibacillus sphaericus; conditions: Bacillus sp. (in: firmicutes)
Bacillus subtilis = test: Minimum inhibitory concentration against gram positive Bacillus subtilis (MTCC 441) using broth dilution method; format: functional

| MIC (Klebsiella aerogenes) [µg/mL] | MIC [1] [µg/mL] | MIC (Staphylococcus aureus) [µg/mL] | MIC (Bacillus sp.) [µg/mL] | MIC (Bacillus subtilis) [µg/mL] | Structure (SMILES) |
| --- | --- | --- | --- | --- | --- |
| 25 (≈ 70.6 µM) | 6.25 (≈ 17.6 µM) | 25 (≈ 70.6 µM) | 6.25 (≈ 17.6 µM) | 25 (≈ 70.6 µM) | CCCC(=O)Oc1cc2oc(-c3ccccc3)cc(=O)c2c(O)c1OC |
| 50 (≈ 153 µM) | 25 (≈ 76.6 µM) | 50 (≈ 153 µM) | 25 (≈ 76.6 µM) | 12.5 (≈ 38.3 µM) | COc1c(OC(C)=O)cc2oc(-c3ccccc3)cc(=O)c2c1O |
| 25 (≈ 45.4 µM) | 12.5 (≈ 22.7 µM) | 25 (≈ 45.4 µM) | 12.5 (≈ 22.7 µM) | 12.5 (≈ 22.7 µM) | CCCCCCCCCCCCCCCCCC(=O)Oc1cc2oc(-c3ccccc3)cc(=O)c2c(O)c1OC |
| 50 (≈ 101 µM) | 25 (≈ 50.5 µM) | 50 (≈ 101 µM) | 12.5 (≈ 25.3 µM) | 25 (≈ 50.5 µM) | CCCCCCCCCCCCCC(=O)Oc1cc2oc(-c3ccccc3)cc(=O)c2c(O)c1OC |
| 12.5 (≈ 26.1 µM) | 6.25 (≈ 13.1 µM) | 25 (≈ 52.3 µM) | 25 (≈ 52.3 µM) | 12.5 (≈ 26.1 µM) | COc1cc(C(=O)Oc2cc3oc(-c4ccccc4)cc(=O)c3c(O)c2OC)cc(OC)c1OC |
| 25 (≈ 80 µM) | 25 (≈ 80 µM) | 50 (≈ 160 µM) | 25 (≈ 80 µM) | 25 (≈ 80 µM) | CCOc1cc2oc(-c3ccccc3)cc(=O)c2c(O)c1OC |
| 25 (≈ 73.4 µM) | 25 (≈ 73.4 µM) | 25 (≈ 73.4 µM) | 12.5 (≈ 36.7 µM) | 25 (≈ 73.4 µM) | CCOc1cc2oc(-c3ccccc3)cc(=O)c2c(OCC)c1OC |
| 12.5 (≈ 23.9 µM) | 25 (≈ 47.8 µM) | 25 (≈ 47.8 µM) | 25 (≈ 47.8 µM) | 25 (≈ 47.8 µM) | CCCCCCCCCCCCCCCC(=O)Oc1cc2oc(-c3ccccc3)cc(=O)c2c(O)c1OC |
| 12.5 (≈ 26.8 µM) | 25 (≈ 53.6 µM) | 12.5 (≈ 26.8 µM) | 12.5 (≈ 26.8 µM) | 25 (≈ 53.6 µM) | CCCCCCCCCCCC(=O)Oc1cc2oc(-c3ccccc3)cc(=O)c2c(O)c1OC |
| 12.5 (≈ 29.2 µM) | 25 (≈ 58.4 µM) | 12.5 (≈ 29.2 µM) | 12.5 (≈ 29.2 µM) | 25 (≈ 58.4 µM) | COc1c(OC(=O)C/C=C/c2ccccc2)cc2oc(-c3ccccc3)cc(=O)c2c1O |
| 25 (≈ 62.1 µM) | 50 (≈ 124 µM) | 50 (≈ 124 µM) | 25 (≈ 62.1 µM) | 50 (≈ 124 µM) | COc1c(OC(=O)c2ccc(C)cc2)cc2oc(-c3ccccc3)cc(=O)c2c1O |
| 25 (≈ 64.4 µM) | 12.5 (≈ 32.2 µM) | 25 (≈ 64.4 µM) | 6.25 (≈ 16.1 µM) | 12.5 (≈ 32.2 µM) | COc1c(OC(=O)c2ccccc2)cc2oc(-c3ccccc3)cc(=O)c2c1O |
| 25 (≈ 59.1 µM) | 25 (≈ 59.1 µM) | 12.5 (≈ 29.6 µM) | 25 (≈ 59.1 µM) | 25 (≈ 59.1 µM) | COc1c(OC(=O)c2ccccc2Cl)cc2oc(-c3ccccc3)cc(=O)c2c1O |
| 25 (≈ 65.4 µM) | 25 (≈ 65.4 µM) | 25 (≈ 65.4 µM) | 12.5 (≈ 32.7 µM) | 25 (≈ 65.4 µM) | CCCCCC(=O)Oc1cc2oc(-c3ccccc3)cc(=O)c2c(O)c1OC |
| 50 (≈ 160 µM) | 25 (≈ 80 µM) | 25 (≈ 80 µM) | 25 (≈ 80 µM) | 50 (≈ 160 µM) | COc1cc2oc(-c3ccccc3)cc(=O)c2c(OC)c1OC [BAICALEIN TRIMETHYL ETHER] |
| 50 (≈ 168 µM) | 25 (≈ 83.8 µM) | 50 (≈ 168 µM) | 12.5 (≈ 41.9 µM) | 25 (≈ 83.8 µM) | COc1cc2oc(-c3ccccc3)cc(=O)c2c(O)c1OC [MOSLOFLAVONE] |
| 50 (≈ 176 µM) | 25 (≈ 87.9 µM) | 50 (≈ 176 µM) | 25 (≈ 87.9 µM) | 50 (≈ 176 µM) | COc1c(O)cc2oc(-c3ccccc3)cc(=O)c2c1O [OROXYLIN A] |
| 6.25 (≈ 17.8 µM) | 12.5 (≈ 35.7 µM) | 1.56 (≈ 4.46 µM) | 3.12 (≈ 8.92 µM) | 1.56 (≈ 4.46 µM) | CC1(C)S[C@@H]2[C@H](NC(=O)COc3ccccc3)C(=O)N2[C@H]1C(=O)O [PENICILLIN V] |

| Structure (SMILES) | MIC (Klebsiella aerogenes) [µg/mL] | MIC [1] [µg/mL] | MIC (Staphylococcus aureus) [µg/mL] | MIC (Bacillus sp.) [µg/mL] | MIC (Bacillus subtilis) [µg/mL] |
| --- | --- | --- | --- | --- | --- |
| CN[C@@H]1[C@H](O[C@H]2[C@H](O[C@H]3[C@H](O)[C@@H](O)[C@H](N=C(N)N)[C@@H](O)[C@@H]3N=C(N)N)O[C@@H](C)[C@]2(O)C=O)O[C@@H](CO)[C@H](O)[C@H]1O (stereo in doubt) [STREPTOMYCIN] | 1.56 (≈ 2.69 µM) | 3.12 (≈ 5.37 µM) | 6.25 (≈ 10.7 µM) | 12.5 (≈ 21.5 µM) | 6.25 (≈ 10.7 µM) |
